# Results reported in ChEMBL document CHEMBL5331088, “Design and synthesis of novel halogen rich salicylanilides as potential antileishmanial agents” (Eur J Med Chem, 2023).
# Tests used:
# Leishmania donovani [1] = assay: Antileishmanial activity against Leishmania donovani amastigotes infected in J774.A1 macrophage assessed as inhibition of parasite growth by luciferase assay; assay type: functional, organism-based
# [2] = Cytotoxicity against mouse J774A.1 cells assessed as reduction in cell viability by MTT assay; assay type: toxicity, cell-based, J774.A1
# [3] = Cytotoxicity against African green monkey Vero cells assessed as reduction in cell viability by MTT assay; assay type: toxicity, cell-based; conditions: chlorocebus sabaeus
# [4] = Selectivity index, ratio of CC50 for cytotoxicity against mouse J774.A1 cells to IC50 for antileishmanial activity against Leishmania donovani amastigotes infected in J774.A1 macrophage; assay type: toxicity, cell-based; conditions: read-out: Ratio CC50/IC50
# [5] = Selectivity index, ratio of CC50 for cytotoxicity against African green monkey Vero cells to IC50 for antileishmanial activity against Leishmania donovani amastigotes infected in J774.A1 macrophage; assay type: toxicity, cell-based; conditions: read-out: Ratio CC50/IC50
# Leishmania donovani [6] = assay: Antileishmanial activity against Leishmania donovani amastigotes infected in golden hamster model assessed as inhibition of splenic parasite burden at 50 mg/kg,ip for 5 consecutive days measured after 7 days of post treatment; assay type: functional; conditions: for inhibition in vivo at 50 mg/kg: 168 h, time 7 day
# Leishmania donovani [7] = assay: Antileishmanial activity against Leishmania donovani amastigotes infected in golden hamster model assessed as inhibition of splenic parasite burden at 50 mg/kg,ip for 5 consecutive days measured after 28 days of post treatment; assay type: functional; conditions: for inhibition in vivo at 50 mg/kg: 672 h, time 28 day
# [8] = Leishmania donovani, J774.A1, read-out: IC50
Molecule,IC50 (Leishmania donovani [1]; [8]) [µM],CC50 [2] [µM],CC50 [3] [µM],selectivity ratio [4],selectivity ratio [5],IC50 (Leishmania donovani [1]),inhibition in vivo at 50 mg/kg (Leishmania donovani [6]) [%],inhibition in vivo at 50 mg/kg (Leishmania donovani [7]) [%],inhibition (Leishmania donovani [6]; time 7.0 day) [%],inhibition (Leishmania donovani [7]; time 28.0 day) [%]
O=C(Nc1ccc([N+](=O)[O-])cc1F)c1ccccc1O,4.06,42.8,11.7,10.5,2.89,–,–,–,–,–
O=C(Nc1ccccc1F)c1cc(Cl)ccc1O,3.95,44,12.1,11.1,3.06,–,–,–,–,–
O=C(Nc1ccccc1)c1ccccc1 [N-PHENYLBENZAMIDE],–,–,–,–,–,Not Active,–,–,–,–
O=C(Nc1ccc(Br)c(C(F)(F)F)c1)c1ccccc1O,3.82,44.2,4.33,11.6,1.13,–,–,–,–,–
O=C(Nc1ccc(F)c(F)c1)c1ccccc1O,7.36,43.9,45.4,5.96,6.17,–,–,–,–,–
O=C(Nc1ccc(F)c(F)c1)c1cc(Cl)ccc1O,3.54,51.2,10.6,14.5,2.99,–,–,–,–,–
O=C(Nc1ccc(Cl)c(C(F)(F)F)c1)c1cc(Cl)ccc1O,4,52.4,4.31,13.1,1.08,–,–,–,–,–
O=C(Nc1cccc(C(F)(F)F)c1)c1cc(Cl)ccc1O,3.47,–,3.17,–,–,–,–,–,–,–
O=C(Nc1ccc(F)cc1)c1cc(Cl)ccc1O,–,–,–,–,–,Not Active,–,–,–,–
O=C(Nc1ccccc1)c1cccc(Cl)c1,–,–,–,–,–,Not Active,–,–,–,–
O=C(Nc1ccccc1Cl)c1cc(Cl)ccc1O,2.62,46.5,13.2,17.7,5.02,–,–,–,–,–
O=C(Nc1ccc(Cl)cc1)c1cc(Cl)ccc1O,2.09,39,16.3,18.7,7.8,–,63.1,65.2,–,–
Sodium stibogluconate,–,–,–,–,–,–,–,–,81.4,85.4
O=C(Nc1ccc(Br)cc1)c1cc(Cl)ccc1O,3.83,50.8,10.1,13.3,2.64,–,–,–,–,–
O=C(Nc1ccc(F)c(Cl)c1)c1ccccc1O,–,–,–,–,–,Not Active,–,–,–,–
O=C(Nc1ccc([N+](=O)[O-])cc1F)c1cc(Cl)ccc1O,3.98,43.1,3.23,10.8,0.81,–,–,–,–,–
O=C(Nc1ccccc1)c1cc(Cl)ccc1O,–,–,–,–,–,Not Active,–,–,–,–

Molecule,IC50 (Leishmania donovani [1]; [8]) [µM],CC50 [2] [µM],CC50 [3] [µM],selectivity ratio [4],selectivity ratio [5],IC50 (Leishmania donovani [1]),inhibition in vivo at 50 mg/kg (Leishmania donovani [6]) [%],inhibition in vivo at 50 mg/kg (Leishmania donovani [7]) [%],inhibition (Leishmania donovani [6]; time 7.0 day) [%],inhibition (Leishmania donovani [7]; time 28.0 day) [%]
O=C(Nc1ccc([N+](=O)[O-])cc1Cl)c1cccc(Cl)c1,–,–,–,–,–,Not Active,–,–,–,–
O=C(Nc1ccccc1)c1ccccc1O [SALICYLANILIDE],–,–,–,–,–,Not Active,–,–,–,–
O=C(Nc1ccc([N+](=O)[O-])cc1Cl)c1ccccc1,–,–,–,–,–,Not Active,–,–,–,–
O=C(Nc1cc(Cl)cc(Cl)c1)c1cc(Cl)ccc1O,3.83,38.8,6.49,10.1,1.69,–,–,–,–,–
O=C(Nc1cc(Cl)cc(Cl)c1)c1ccccc1O,7.97,42.2,7.09,5.3,0.89,–,–,–,–,–
O=C(Nc1ccc(Cl)c(C(F)(F)F)c1)c1ccccc1O,–,–,–,–,–,Not Active,–,–,–,–
O=C(Nc1ccc(F)cc1[N+](=O)[O-])c1ccccc1O,7.47,41.1,65.2,5.5,8.73,–,–,–,–,–
O=C(Nc1cc(Cl)cc(Cl)c1O)c1c(O)c(Cl)cc(Cl)c1Cl [OXYCLOZANIDE],7.71,42.4,156,5.49,31.2,–,–,–,–,–
O=C(Nc1ccccc1F)c1ccccc1O,–,–,–,–,–,Not Active,–,–,–,–
CCCCCCCCCCCCCCCCOP(=O)([O-])OCC[N+](C)(C)C [MILTEFOSINE],9.25,53.3,51.8,5.76,5.6,–,–,–,–,–
O=C(Nc1ccc([N+](=O)[O-])cc1Cl)c1cc(Cl)ccc1O [NICLOSAMIDE],3.68,42.1,3.06,11.4,0.61,–,–,–,–,–
O=C(Nc1ccc(Br)c(C(F)(F)F)c1)c1cc(Cl)ccc1O,3.5,46.6,2.54,13.3,0.72,–,–,–,–,–
O=C(Nc1ccc(F)cc1)c1ccccc1O,–,–,–,–,–,Not Active,–,–,–,–
O=C(Nc1ccc(F)c(Cl)c1)c1cc(Cl)ccc1O,2.89,52.4,14.5,18.1,5.02,–,25.1,16.5,–,–
O=C(Nc1ccc([N+](=O)[O-])cc1Cl)c1ccccc1O,3.27,42.1,7.29,12.9,2.23,–,–,–,–,–
O=C(Nc1cccc(Cl)c1)c1cc(Cl)ccc1O,4.62,50.5,13.9,10.9,3,–,–,–,–,–
O=C(Nc1ccc(F)cc1[N+](=O)[O-])c1cc(Cl)ccc1O,3.88,49.6,21.9,12.8,5.65,–,–,–,–,–
